Experimental data from ChEMBL document CHEMBL1201862, “PubChem BioAssay data set” (2004).
The source made the active and inactive calls.

Experiments:
[1] = THP-1 cell cytotoxicity, dose response, cytotoxicity control for non-replicating M. tuberculosis project (AID 489025); format: functional
[2] = growth suppression of PTEN-null colon cells, dose response, cell-based, HCT116 PTEN knockout (AID 1047); format: functional;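 also: HCT116 colon tumor cells with PTEN knocked out; cells exposed to compound for 60 hours before readout; potency for loss of cell viability measured by luminescence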
[3] = microbe, parasite or virus in culture; format: functional; settings: Mycobacterium tuberculosis
[4] = growth suppression of beta-catenin-knockout colon cells, dose response, cell-based, HCT116, human colon tumor (AID 1045); format: functional;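 also: HCT116 colon tumor cells with beta catenin knocked out; cells exposed to compound for 60 hours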
[5] = THP-1 cell cytotoxicity, dose response, cytotoxicity control for Vif-APOBEC3G degradation inhibitor project, THP-1 cells (AID 1117359); format: functional; settings: Human immunodeficiency virus 1, THP-1
[6] = biological target: Glucose-6-phosphate 1-dehydrogenase (Homo sapiens, UniProt P11413); test: human G6PD enzyme inhibitors, dose response, selectivity assay for P. falciparum G6PD inhibitor project, biochemical, fluorescence (AID 504792); format: functional
Glucose-6-phosphate 1-dehydrogenase, sequence (P11413 whole entry): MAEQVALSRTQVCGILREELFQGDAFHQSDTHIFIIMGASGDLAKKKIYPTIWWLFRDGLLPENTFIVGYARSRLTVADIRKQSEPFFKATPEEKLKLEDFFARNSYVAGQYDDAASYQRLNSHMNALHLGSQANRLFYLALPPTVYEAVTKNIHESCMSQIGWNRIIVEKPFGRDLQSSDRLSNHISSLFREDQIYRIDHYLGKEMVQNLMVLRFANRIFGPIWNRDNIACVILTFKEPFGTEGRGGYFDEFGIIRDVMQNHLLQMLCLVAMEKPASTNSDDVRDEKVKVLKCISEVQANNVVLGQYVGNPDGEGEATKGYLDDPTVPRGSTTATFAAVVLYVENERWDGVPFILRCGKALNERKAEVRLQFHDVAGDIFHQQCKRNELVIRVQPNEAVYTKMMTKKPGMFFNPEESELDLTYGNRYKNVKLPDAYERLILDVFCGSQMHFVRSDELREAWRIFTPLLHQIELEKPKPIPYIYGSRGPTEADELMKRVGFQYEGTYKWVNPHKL

BJ [7] = test: cells; format: functional, cell-based; settings: Homo sapiens
[8] = Luminescence Cell-Based Dose Response HTS to Identify Inhibitors of 5'UTR Stem-Loop Driven Prion Protein mRNA Translation in H4 Neuroglioblastoma Cells. [Related pubchem assays: 1827 (Project Summary), 1813 (Primary HTS)]; format: functional
BJ [9] = test: cytotoxicity toward BJ-TERT fibroblasts, dose response, cell-based, RAS-independent, luminescence (AID 1933); format: functional; settings: Homo sapiens
[10] = inhibitors of SNCA 5'UTR-driven reporter translation, confirmation, H4 neuroglioma cells, luminescence (AID 1988); format: functional, cell-based
[11] = cytotoxicity toward DRD oncogenic fibroblasts, dose response, cell-based, non-viral oncogenic, luminescence (AID 1934); format: functional; settings: Homo sapiens
BJ [12] = test: cytotoxicity toward BJ-TERT-LT-ST fibroblasts, dose response, cell-based, RAS-independent, luminescence (AID 1935); format: functional; settings: Homo sapiens;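 also: BJ fibroblasts immortalized with TERT plus LT and ST oncogenes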
[13] = inhibitors of firefly luciferase expression or activity, dose response, H4 neuroglioma cells, luminescence (AID 1990); format: functional, cell-based
[14] = inhibitors of clade B AD8 Env fusion, dose response, cell-based, cherry-pick (AID 652062); format: functional;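 also: luciferase signal from cell-cell fusion driven by HIV-1 clade B AD8 Env; potency is for inhibitors of fusion seen as a drop in luminescence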
[15] = ZM109 Env clade C HIV-1 fusion inhibitors, dose response, HeLa effector, CEM target cells, luciferase, cherry-pick (AID 652058); format: functional, cell-based
[16] = inhibitors of HIV Env-driven cell fusion, dose response, cherry-pick (AID 652057); format: functional, cell-based
[17] = off-target signal loss in HeLa-CEM21 co-culture – HeLa F-luc CTL cells, cherry-picked, counter-screen for HIV-1 Env fusion inhibitor project, dose response (AID 652040); format: functional, cell-based;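 also: potency for signal decrease marking cytotoxic or nonspecific inhibition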
[18] = Luminescence Cell-Based Dose Confirmation HTS to Identify Activators of 5'UTR Stem-Loop Driven Alpha-Synuclein mRNA Translation in H4 Neuroglioblastoma Cells. [Related pubchem assays: 1829 (Project Summary), 1814 (Primary HTS)]; format: functional
H4 = test: Luminescence Cell-Based Dose Response HTS to Identify Activators of 5'UTR Stem-Loop Driven Prion Protein mRNA Translation in H4 Neuroglioblastoma Cells. [Related pubchem assays: 1829 (Project Summary), 1814 (Primary HTS)]; format: functional; settings: Homo sapiens
[19] = Luminescence Cell-Based Dose Response HTS to Identify Activators of Luciferase Translation or Activity in H4 […] Cells. [Related pubchem assays: 1829 (Project Summary), 1814 (Primary HTS)]; format: functional
[20] = P. falciparum Dd2 growth inhibitors, dose response, SYBR Green, cherry-picked samples (AID 1159567); format: functional, cell-based
Cytochrome P450 2D6 = Cytochrome P450 2D6 (Homo sapiens, UniProt P10635);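 also: CYP2D6 member of a cytochrome P450 panel assay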
Cytochrome P450 2D6, sequence (P10635 whole entry): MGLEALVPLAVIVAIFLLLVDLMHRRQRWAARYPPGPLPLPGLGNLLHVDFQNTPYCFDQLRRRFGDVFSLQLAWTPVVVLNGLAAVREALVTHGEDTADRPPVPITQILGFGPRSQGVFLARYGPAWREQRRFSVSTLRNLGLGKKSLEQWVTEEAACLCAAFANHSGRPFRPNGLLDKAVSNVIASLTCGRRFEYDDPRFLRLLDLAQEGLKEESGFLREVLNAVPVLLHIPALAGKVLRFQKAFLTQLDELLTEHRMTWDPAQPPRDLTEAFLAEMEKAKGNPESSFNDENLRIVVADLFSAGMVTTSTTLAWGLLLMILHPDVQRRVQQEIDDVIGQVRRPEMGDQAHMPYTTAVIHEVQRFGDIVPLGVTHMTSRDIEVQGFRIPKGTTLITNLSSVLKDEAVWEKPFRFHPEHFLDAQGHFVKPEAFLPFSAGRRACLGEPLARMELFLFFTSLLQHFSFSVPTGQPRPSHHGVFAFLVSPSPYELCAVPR

Cytochrome P450 3A4 = Cytochrome P450 3A4 (Homo sapiens, UniProt P08684);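 also: CYP3A4 tested as one member of a cytochrome P450 panel screen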
Cytochrome P450 3A4, sequence (P08684 whole entry): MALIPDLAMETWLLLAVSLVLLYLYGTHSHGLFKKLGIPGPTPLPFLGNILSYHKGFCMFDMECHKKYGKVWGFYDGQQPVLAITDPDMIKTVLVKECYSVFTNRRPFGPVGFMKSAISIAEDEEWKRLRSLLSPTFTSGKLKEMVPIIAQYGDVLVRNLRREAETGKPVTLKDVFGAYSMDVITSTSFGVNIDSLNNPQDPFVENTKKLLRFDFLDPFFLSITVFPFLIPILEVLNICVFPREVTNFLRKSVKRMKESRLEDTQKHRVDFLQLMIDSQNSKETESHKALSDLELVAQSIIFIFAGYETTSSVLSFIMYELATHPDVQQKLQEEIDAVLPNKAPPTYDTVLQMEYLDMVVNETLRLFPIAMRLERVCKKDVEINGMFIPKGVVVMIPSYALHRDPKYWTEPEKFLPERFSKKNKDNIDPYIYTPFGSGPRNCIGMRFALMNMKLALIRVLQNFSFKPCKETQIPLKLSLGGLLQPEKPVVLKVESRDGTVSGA

## Cc1cc(C)nc(SC2CC(=O)N(c3ccc(C)c(C)c3)C2=O)n1 (centres undefined)
[1]
  CC50: > 40 µM (active)

## CN1CCN(c2cc(-c3ccccc3)nc3cc(-c4ccc(F)cc4)nn23)CC1
[2]
  EC50: 10.6 µM (active)
[3]
  CC50: 11.7 µM (active)
[4]
  EC50: 9.14 µM (active)

## Oc1nnc(Cc2ncc(C(F)(F)F)cc2Cl)c2ccccc12
[5]
  CC50: > 40 µM (active)

## Cc1ccc(/C=C/C(=O)NCCc2cccc(Cl)c2)o1
[6]
  IC50: > 80 µM (inactive)

## O=C(NCCc1ccc(Cl)cc1)c1ccc(C[S+]([O-])Cc2ccc(Cl)cc2)o1 (centres undefined)
[3]
  CC50: > 40 µM (active)

## Cc1ccc(CSc2nc3ccccc3cc2C=O)cc1
BJ [7]
  EC50: 1.87 µM (active)
[8]
  EC50: 11.9 µM (active)
BJ [9]
  EC50: 0.689 µM (active)
[10]
  EC50: 9.33 µM (active)
[11]
  EC50: 1.59 µM (active)
BJ [12]
  EC50: 0.668 µM (active)
[13]
  EC50: > 120 µM (not active)

## CC(=O)C1=C(C)N(Cc2ccc(Cl)cc2)C(=S)NC1c1cccc(Br)c1 (centres undefined)
[14]
  AC50: 22.6 µM (active)
[15]
  AC50: 4.16 µM (active)
[16]
  AC50: 5.96 µM (active)
[17]
  AC50: 15.9 µM (active)

## C/C(Cn1nnc([N+](=O)[O-])n1)=N\NC(=O)c1ccccc1
[18]
  EC50: > 120 µM (not active)
[6]
  IC50: > 80 µM (inactive)
H4
  EC50: > 120 µM (not active)
[19]
  EC50: > 120 µM (not active)

## COc1ccc(C#Cc2ccc3c(c2)[C@H]2[C@H](CCN2C(=O)C2CCC2)[C@H](CO)N3)cc1
[20]
  AC50: 3.3 µM (active)

## CCC(=O)N1CCC2(CC1)CN(Cc1cccc(Cl)c1)[C@H](CO)c1c2c2ccc(OC)cc2n1C
[20]
  AC50: 4.8 µM (active)

## COc1cccc(NC(=O)N2CC(=O)N3[C@H](CO)[C@@H](c4ccc(C#CCC5CCCC5)cc4)[C@H]3C2)c1
[20]
  AC50: 8.6 µM (active)

## FC(F)(F)c1cccc(CN2[C@@H]3CNC[C@H]2[C@@H]3c2ccc(-c3cccnc3)cc2)c1
[20]
  AC50: 4.42 µM (active)

## NCCc1c[nH]c2ccccc12 [TRYPTAMINE]
Cytochrome P450 2D6
  AC50: 31.6 µM (inconclusive)
Cytochrome P450 3A4
  AC50: inconclusive
[5]
  CC50: > 40 µM (active)
